Measurements reported in patent publication US20100204182A1, “ECTONUCLEOTIDASE INHIBITORS” (RHEINISCHE FRIEDRICH-WILHELMS-UNIVERSITAT BONN, priority 2006, published 2010).

Assays:
human NTPDase2 = molecular target: T1, human NTPDase2 (Homo sapiens, UniProt Q9Y5L3); experiment: NTPDase inhibition assay by capillary electrophoresis (CE), NTPDase2; type: biochemical; settings: for Ki: human NTPDase2, CE method, ATP 320 μM, Km 70 μM, read-out: NTPDase2 Ki [μM] ± SEM
T1 sequence (Q9Y5L3 1-495): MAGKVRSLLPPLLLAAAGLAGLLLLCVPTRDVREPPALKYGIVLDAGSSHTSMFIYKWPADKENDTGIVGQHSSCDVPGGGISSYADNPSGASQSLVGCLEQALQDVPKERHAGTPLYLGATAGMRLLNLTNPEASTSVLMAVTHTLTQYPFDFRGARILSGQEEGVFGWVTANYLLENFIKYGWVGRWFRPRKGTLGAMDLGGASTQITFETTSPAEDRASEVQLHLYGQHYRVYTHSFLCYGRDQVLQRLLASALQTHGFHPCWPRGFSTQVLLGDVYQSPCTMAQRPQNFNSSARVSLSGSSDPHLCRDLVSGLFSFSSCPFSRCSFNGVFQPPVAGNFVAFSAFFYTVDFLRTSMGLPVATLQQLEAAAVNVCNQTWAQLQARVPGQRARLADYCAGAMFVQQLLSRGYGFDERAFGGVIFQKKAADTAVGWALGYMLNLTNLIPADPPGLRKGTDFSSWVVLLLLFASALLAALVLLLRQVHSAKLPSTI

hP2Y4 = hP2Y4 (Homo sapiens, UniProt P51582); experiment: Inhibition of UTP binding at hP2Y4; settings: read-out: hP2Y4 % inhibition of UTP binding at 100 μM, n = 3, mean ± SEM
Protocol: (§1) In table 2 inhibition data of selected examples at human P2Y receptor subtypes were collected. It can be seen that no compound was identified that inhibited P2Y receptors at high concentrations of 100 μM and 10 μM, respectively.

hP2Y12 = hP2Y12 (Homo sapiens, UniProt Q9H244); experiment: Inhibition of [3H]PSB-0413 binding at hP2Y12; settings: mean ± SEM, read-out: hP2Y12 % Inhibition of [^3H]PSB-0413 Binding at 10 μM, n = 3
Protocol: as §1

Chain of hP2Y12 (Q9H244 whole entry): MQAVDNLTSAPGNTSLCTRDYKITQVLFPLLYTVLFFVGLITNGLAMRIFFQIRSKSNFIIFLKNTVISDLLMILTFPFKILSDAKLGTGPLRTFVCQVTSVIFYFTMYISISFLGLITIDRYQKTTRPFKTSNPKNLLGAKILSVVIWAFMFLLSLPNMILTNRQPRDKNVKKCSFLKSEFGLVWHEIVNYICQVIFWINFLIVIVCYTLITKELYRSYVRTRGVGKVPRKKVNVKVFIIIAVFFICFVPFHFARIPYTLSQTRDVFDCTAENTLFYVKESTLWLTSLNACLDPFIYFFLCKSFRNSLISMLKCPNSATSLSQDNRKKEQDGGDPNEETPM
Chain of hP2Y4 (P51582 whole entry): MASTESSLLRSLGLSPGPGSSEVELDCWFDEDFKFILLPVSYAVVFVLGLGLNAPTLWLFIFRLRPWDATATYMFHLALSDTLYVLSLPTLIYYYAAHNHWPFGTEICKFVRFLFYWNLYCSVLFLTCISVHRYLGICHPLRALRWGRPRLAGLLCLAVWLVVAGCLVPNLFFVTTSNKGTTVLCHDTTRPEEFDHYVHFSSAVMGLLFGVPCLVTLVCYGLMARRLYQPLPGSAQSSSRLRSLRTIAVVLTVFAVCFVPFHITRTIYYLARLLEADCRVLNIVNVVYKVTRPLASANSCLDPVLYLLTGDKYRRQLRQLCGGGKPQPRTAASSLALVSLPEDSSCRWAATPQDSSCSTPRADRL

SMILES	Ki (human NTPDase2)	inhibition at 100 µM (hP2Y4)	inhibition at 10 µM (hP2Y12)	inhibitor of NTPDase (in words) (human NTPDase2; in words, compare Tab. 1)
CCOP(=O)(Cc1ccc(NC(=O)CCNC(=O)[C@H]2O[C@@H](n3ccc(=O)[nH]c3=O)C(O)C2O)cc1)OCC (stereo in doubt) [Compound 3, 4-[3-((2S,3R,4S,5R)-5-(2,4-Dioxo-3,4-dihydropyrimidin-1(2H)-yl)-3,4-di-hydroxy-tetrahydrofurane-2-carboxamido)propaneamido]benzylphosphonic acid diethylester]	173 ± 17 µM	14 ± 6%	9 ± 4%	–
CCOP(=O)(Cc1ccc(NC(=O)CNC(=O)[C@H]2O[C@@H](n3ccc(=O)[nH]c3=O)C(O)C2O)cc1)OCC (stereo in doubt) [Compound 2, 4-[2-((2S,3R,4S,5R)-5-(2,4-Dioxo-3,4-dihydropyrimidin-1(2H)-yl)-3,4-dihydroxy-tetrahydrofurane-2-carboxamido)ethaneamido]benzylphosphonic acid diethylester]	8.2 ± 2.1 µM	–	2 ± 6%	excellent inhibitor
